System: glucosylceramide (GL-1)
Test: Plasma glucosylceramide (GL-1) levels, pharmacodynamics
Format: in vivo, human
From the text: Analyses were based on all available data from participants who enrolled in part 1 of the trial and were randomised to receive either Compound 2 or placebo for up to 52 weeks for Japanese participants and 36 weeks for the ROW population. As part 1 was an exploratory, dose-escalation study, the sample size was not based on a statistical power calculation. Participants included in the primary safety analyses were those who were randomized and received at least one dose of Compound 2 or placebo. A data monitoring committee was responsible for overseeing the safety of patients and the risk/benefit ratio throughout the study. Duration of exposure to Compound 2 was different among the doses, as per the sequential cohort design, with the low- and high-dose cohorts commencing the study first and last, respectively. For pharmacokinetics, plasma parameters were calculated using noncompartmental methods, from plasma Compound 2 concentrations obtained after single dose administration. AUC0-24 and AUC0-48 were calculated using the trapezoidal method over a predefined time period of 24 hours or 48 hours, respectively. CLss/F was calculated using the following equation: CLss/F=Dose/AUCτ, where τ is the dosing interval. For pharmacodynamics, percent reduction of plasma or CSF GL-1 from baseline was calculated as (value−baseline)/baseline×100. Formal statistical testing was not conducted on MDS-UPDRS scale assessments.
In exploratory analyses, Compound 2 pharmacodynamics in plasma and CSF were assessed by mean percent change in GL-1 levels from baseline through Week 4. GL-1 levels were assessed in plasma and CSF samples collected at the day of randomisation and Week 4, with plasma GL-1 levels also assessed at Week 2.
Concentrations of GL-1 in plasma and CSF were determined using a liquid chromatography tandem mass spectrometry method. Secondary pharmacokinetic outcomes were evaluated over a 4-week period of once-daily Compound 2 dosing (Table 7).

[1] = Japan, High 15 mg once daily oral, n = 3
[2] = Japan, Low 4 mg once daily oral, n = 3
[3] = Japan, Mid 8 mg once daily oral, n = 3
[4] = ROW, High 15 mg once daily oral, n = 4
[5] = ROW, Low 4 mg once daily oral, n = 4
[6] = ROW, Mid 8 mg once daily oral, n = 5

CC(C)(NC(=O)O[C@@H]1CN2CCC1CC2)c1csc(-c2ccc(F)cc2)n1 [Compound 2, (S)-quinuclidin-3-yl (2-(2-(4-fluorophenyl)thiazol-4-yl)propan-2-yl)carbamate]
Plasma GL-1, Week 2 (mean) [1]: 1.231 µg/mL
Plasma GL-1, Week 2, Change from baseline (%) (mean) [1]: −77.2%
Plasma GL-1, Week 2, Change from baseline (mean) [1]: -4.285 µg/mL
Plasma GL-1, Week 4 (mean) [1]: 1.149 µg/mL
Plasma GL-1, Week 4, Change from baseline (%) (mean) [1]: −79.3%
Plasma GL-1, Week 4, Change from baseline (mean) [1]: -4.368 µg/mL
Plasma GL-1, Week 2 (mean) [2]: 2.230 µg/mL
Plasma GL-1, Week 2, Change from baseline (%) (mean) [2]: −63.6%
Plasma GL-1, Week 2, Change from baseline (mean) [2]: -3.797 µg/mL
Plasma GL-1, Week 4 (mean) [2]: 2.097 µg/mL
Plasma GL-1, Week 4, Change from baseline (%) (mean) [2]: −66.1%
Plasma GL-1, Week 4, Change from baseline (mean) [2]: -3.930 µg/mL
Plasma GL-1, Week 2 (mean) [3]: 1.507 µg/mL
Plasma GL-1, Week 2, Change from baseline (%) (mean) [3]: −67.5%
Plasma GL-1, Week 2, Change from baseline (mean) [3]: -3.133 µg/mL
Plasma GL-1, Week 4 (mean) [3]: 1.340 µg/mL
Plasma GL-1, Week 4, Change from baseline (%) (mean) [3]: −70.7%
Plasma GL-1, Week 4, Change from baseline (mean) [3]: -3.300 µg/mL
mean reduction in plasma GL-1 at Week 4 (Japanese cohort, high-dose 15 mg): 79.3%
mean reduction in plasma GL-1 at Week 4 (Japanese cohort, low-dose 4 mg): 66.1%
mean reduction in plasma GL-1 at Week 4 (Japanese cohort, medium-dose 8 mg): 70.7%
mean reduction in plasma GL-1 at Week 4 (ROW participants, high-dose 15 mg): 77.7%
mean reduction in plasma GL-1 at Week 4 (ROW participants, low-dose 4 mg): 59.0%
mean reduction in plasma GL-1 at Week 4 (ROW participants, medium-dose 8 mg): 71.0%
Plasma GL-1, Week 2 (mean) [4]: 1.469 µg/mL
Plasma GL-1, Week 2, Change from baseline (%) (mean) [4]: −73.9%
Plasma GL-1, Week 2, Change from baseline (mean) [4]: -4.119 µg/mL
Plasma GL-1, Week 4 (mean) [4]: 1.253 µg/mL
Plasma GL-1, Week 4, Change from baseline (%) (mean) [4]: −77.7%
Plasma GL-1, Week 4, Change from baseline (mean) [4]: -4.335 µg/mL
Plasma GL-1, Week 2 (mean) [5]: 2.340 µg/mL
Plasma GL-1, Week 2, Change from baseline (%) (mean) [5]: −54.3%
Plasma GL-1, Week 2, Change from baseline (mean) [5]: -2.815 µg/mL
Plasma GL-1, Week 4 (mean) [5]: 2.093 µg/mL
Plasma GL-1, Week 4, Change from baseline (%) (mean) [5]: −59.0%
Plasma GL-1, Week 4, Change from baseline (mean) [5]: -3.063 µg/mL
Plasma GL-1, Week 2 (mean) [6]: 1.644 µg/mL
Plasma GL-1, Week 2, Change from baseline (%) (mean) [6]: −69.9%
Plasma GL-1, Week 2, Change from baseline (mean) [6]: -3.830 µg/mL
Plasma GL-1, Week 4 (mean) [6]: 1.578 µg/mL
Plasma GL-1, Week 4, Change from baseline (%) (mean) [6]: −71.0%
Plasma GL-1, Week 4, Change from baseline (mean) [6]: -3.896 µg/mL
decrease of plasma GL-1 levels from baseline versus dose (over 4 weeks): dose-dependent manner
